# Laboratory results published in ChEMBL document CHEMBL3991601, “The target landscape of clinical kinase drugs” (Science, 2017).
# Active and inactive are the calls of the source.
# Key:
# [1] = biological target: T1, Glycogen phosphorylase, liver form (Homo sapiens, UniProt P06737); type: subcellular, K-562, COLO 205, SK-N-BE(2) and MV-4-11, Cell lysate; details: read-out: Kd apparent
# T1 sequence (P06737 whole entry): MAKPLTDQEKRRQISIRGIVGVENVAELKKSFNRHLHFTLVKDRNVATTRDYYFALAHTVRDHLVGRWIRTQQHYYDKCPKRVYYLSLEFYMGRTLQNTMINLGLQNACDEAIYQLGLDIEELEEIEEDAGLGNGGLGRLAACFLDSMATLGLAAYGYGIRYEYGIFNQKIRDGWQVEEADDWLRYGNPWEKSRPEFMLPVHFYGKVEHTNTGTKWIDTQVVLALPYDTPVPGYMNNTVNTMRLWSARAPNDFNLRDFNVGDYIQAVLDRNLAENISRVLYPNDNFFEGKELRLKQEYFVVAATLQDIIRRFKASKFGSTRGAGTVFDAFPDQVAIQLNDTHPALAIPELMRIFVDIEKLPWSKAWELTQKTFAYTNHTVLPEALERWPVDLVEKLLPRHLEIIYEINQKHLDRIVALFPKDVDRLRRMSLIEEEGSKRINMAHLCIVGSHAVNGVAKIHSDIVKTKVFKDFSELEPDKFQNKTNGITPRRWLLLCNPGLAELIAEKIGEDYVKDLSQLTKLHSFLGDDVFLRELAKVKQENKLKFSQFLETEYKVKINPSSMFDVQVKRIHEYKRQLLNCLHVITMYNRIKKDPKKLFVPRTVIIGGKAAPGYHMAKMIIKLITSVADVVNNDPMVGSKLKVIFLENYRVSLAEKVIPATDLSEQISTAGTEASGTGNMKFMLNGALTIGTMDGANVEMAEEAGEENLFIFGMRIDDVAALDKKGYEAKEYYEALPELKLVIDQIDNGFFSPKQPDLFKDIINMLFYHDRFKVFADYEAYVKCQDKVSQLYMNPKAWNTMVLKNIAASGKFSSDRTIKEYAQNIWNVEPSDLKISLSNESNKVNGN
# [2] = biological target: T2, Mitogen-activated protein kinase kinase kinase kinase 2 (Homo sapiens, UniProt Q12851)
# T2 sequence (Q12851 whole entry): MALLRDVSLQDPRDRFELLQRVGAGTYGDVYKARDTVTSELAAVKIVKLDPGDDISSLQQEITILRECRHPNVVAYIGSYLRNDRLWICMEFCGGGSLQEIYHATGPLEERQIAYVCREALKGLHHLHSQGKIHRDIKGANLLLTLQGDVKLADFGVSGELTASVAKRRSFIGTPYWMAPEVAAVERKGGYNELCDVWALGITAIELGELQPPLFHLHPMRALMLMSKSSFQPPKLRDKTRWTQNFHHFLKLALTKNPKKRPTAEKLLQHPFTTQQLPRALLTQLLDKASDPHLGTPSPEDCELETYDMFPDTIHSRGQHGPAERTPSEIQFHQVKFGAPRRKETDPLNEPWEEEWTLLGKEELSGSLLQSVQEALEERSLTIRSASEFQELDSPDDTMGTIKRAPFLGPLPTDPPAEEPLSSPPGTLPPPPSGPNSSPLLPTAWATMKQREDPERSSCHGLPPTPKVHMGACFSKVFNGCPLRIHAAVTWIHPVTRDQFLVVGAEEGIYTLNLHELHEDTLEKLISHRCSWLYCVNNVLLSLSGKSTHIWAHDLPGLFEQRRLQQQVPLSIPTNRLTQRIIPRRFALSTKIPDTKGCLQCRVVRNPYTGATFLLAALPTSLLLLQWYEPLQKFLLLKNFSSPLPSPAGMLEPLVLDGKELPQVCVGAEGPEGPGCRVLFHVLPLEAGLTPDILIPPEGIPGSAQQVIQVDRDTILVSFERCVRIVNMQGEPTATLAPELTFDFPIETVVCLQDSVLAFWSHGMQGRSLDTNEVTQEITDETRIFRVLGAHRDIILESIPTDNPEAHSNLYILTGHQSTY
# Septin-9 = biological target: T3, Septin-9 (Homo sapiens, UniProt Q9UHD8)
# T3 sequence (Q9UHD8 whole entry): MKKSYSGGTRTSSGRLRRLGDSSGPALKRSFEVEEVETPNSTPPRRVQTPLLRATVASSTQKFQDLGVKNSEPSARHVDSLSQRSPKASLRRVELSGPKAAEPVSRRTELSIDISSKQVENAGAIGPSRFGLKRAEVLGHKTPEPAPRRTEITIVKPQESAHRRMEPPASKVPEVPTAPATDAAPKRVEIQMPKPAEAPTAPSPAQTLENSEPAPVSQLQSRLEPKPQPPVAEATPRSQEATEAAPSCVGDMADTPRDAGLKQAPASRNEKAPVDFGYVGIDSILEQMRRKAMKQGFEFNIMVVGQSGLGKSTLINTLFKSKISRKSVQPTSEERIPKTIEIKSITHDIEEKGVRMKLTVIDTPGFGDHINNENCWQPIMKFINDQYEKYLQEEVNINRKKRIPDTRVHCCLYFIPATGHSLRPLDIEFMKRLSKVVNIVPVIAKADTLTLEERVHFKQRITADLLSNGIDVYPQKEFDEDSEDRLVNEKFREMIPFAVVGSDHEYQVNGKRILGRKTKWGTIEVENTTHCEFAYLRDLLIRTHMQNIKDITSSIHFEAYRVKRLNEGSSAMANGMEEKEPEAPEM
# DNA topoisomerase 2-beta = DNA topoisomerase 2-beta (Homo sapiens, UniProt Q02880)
# Note: in the data inactive means no Kd found up to 30 µM.
# Chain of DNA topoisomerase 2-beta (Q02880 whole entry): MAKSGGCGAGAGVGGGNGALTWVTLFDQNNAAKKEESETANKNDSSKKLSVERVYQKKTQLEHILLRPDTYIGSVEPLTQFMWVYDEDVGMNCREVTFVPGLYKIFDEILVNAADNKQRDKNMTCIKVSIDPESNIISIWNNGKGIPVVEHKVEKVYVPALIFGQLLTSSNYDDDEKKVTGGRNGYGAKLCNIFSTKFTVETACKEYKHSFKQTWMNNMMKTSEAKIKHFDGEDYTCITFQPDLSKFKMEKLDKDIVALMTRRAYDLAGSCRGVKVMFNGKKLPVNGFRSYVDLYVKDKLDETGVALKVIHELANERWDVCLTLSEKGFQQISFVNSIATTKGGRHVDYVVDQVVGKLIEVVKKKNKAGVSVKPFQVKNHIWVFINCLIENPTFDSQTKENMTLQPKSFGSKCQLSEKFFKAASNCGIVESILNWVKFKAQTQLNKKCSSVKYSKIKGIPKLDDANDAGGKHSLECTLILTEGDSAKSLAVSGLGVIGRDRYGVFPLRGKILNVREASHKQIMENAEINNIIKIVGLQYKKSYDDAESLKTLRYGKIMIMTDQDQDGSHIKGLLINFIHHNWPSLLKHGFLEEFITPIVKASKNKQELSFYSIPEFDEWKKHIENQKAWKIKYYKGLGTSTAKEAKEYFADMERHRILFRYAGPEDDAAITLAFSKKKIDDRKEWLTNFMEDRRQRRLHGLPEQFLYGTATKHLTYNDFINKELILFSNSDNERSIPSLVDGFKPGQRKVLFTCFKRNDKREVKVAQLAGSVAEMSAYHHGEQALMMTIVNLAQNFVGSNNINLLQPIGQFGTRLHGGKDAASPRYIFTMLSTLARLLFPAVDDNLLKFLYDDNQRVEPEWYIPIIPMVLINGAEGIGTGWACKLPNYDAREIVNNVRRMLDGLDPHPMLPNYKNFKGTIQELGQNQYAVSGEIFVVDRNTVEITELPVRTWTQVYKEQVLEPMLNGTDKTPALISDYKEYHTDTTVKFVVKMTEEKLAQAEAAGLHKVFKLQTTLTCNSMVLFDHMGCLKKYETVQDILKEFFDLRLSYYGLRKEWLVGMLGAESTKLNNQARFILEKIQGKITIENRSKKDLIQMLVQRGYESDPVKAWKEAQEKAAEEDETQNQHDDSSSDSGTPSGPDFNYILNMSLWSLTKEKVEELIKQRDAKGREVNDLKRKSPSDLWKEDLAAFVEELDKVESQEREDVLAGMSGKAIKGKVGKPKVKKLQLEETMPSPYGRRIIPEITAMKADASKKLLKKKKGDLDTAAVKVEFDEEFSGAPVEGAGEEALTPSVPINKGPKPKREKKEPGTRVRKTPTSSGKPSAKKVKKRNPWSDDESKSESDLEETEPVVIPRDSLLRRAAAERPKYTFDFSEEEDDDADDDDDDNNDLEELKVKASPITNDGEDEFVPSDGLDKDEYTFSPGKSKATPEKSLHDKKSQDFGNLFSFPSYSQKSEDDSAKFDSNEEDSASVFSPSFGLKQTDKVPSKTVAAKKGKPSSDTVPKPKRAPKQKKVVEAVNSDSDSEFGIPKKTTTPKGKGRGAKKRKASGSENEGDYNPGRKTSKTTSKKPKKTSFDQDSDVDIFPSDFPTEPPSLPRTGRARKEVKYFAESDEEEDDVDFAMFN
SMILES,Kd [1],Kd [2],Kd (Septin-9),Kd (DNA topoisomerase 2-beta)
O=c1[nH]c([C@@H]2CCCN2)nc2c1oc1ccc(Cl)cc12,> 30 µM (inactive),> 30 µM (inactive),> 30 µM (inactive),> 30 µM (inactive)
N#CCNC(=O)c1ccc(-c2ccnc(Nc3ccc(N4CCOCC4)cc3)n2)cc1 [MOMELOTINIB],> 30 µM (inactive),> 30 µM (inactive),> 30 µM (inactive),> 30 µM (inactive)
C=CC(=O)Nc1cccc(Nc2nc(Nc3ccc(N4CCN(C(C)=O)CC4)cc3OC)ncc2C(F)(F)F)c1 [ROCILETINIB],> 30 µM (inactive),> 30 µM (inactive),> 30 µM (inactive),> 30 µM (inactive)
O=S(=O)(c1cccc2c(O)nccc12)N1CCCNCC1 [HYDROXYFASUDIL],> 30 µM (inactive),> 30 µM (inactive),> 30 µM (inactive),> 30 µM (inactive)
COCCN1CCN(Cc2ccc(-c3n[nH]c4c3C(=O)c3c(NC(=O)NN5CCOCC5)cccc3-4)cc2)CC1 [RGB-286638],> 30 µM (inactive),> 30 µM (inactive),> 30 µM (inactive),> 30 µM (inactive)
CC[C@@](C)(Nc1ccnc(-c2c[nH]c3ncccc23)n1)C(=O)NCC(F)(F)F [DECERNOTINIB],> 30 µM (inactive),> 30 µM (inactive),> 30 µM (inactive),0.148 µM (active)
CCc1cc2c(cc1N1CCC(N3CCOCC3)CC1)C(C)(C)c1[nH]c3cc(C#N)ccc3c1C2=O [ALECTINIB],> 30 µM (inactive),> 30 µM (inactive),> 30 µM (inactive),> 30 µM (inactive)
COc1cc(Nc2ncc(F)c(Nc3ccc4c(n3)N(COP(=O)(O)O)C(=O)C(C)(C)O4)n2)cc(OC)c1OC [FOSTAMATINIB],> 30 µM (inactive),> 30 µM (inactive),> 30 µM (inactive),> 30 µM (inactive)
Cc1ccc(C(=O)Nc2ccc(Oc3cc4cnn(C)c4cc3-c3cn[nH]c3)c(F)c2)c(=O)n1-c1ccc(F)cc1 [MERESTINIB],> 30 µM (inactive),> 30 µM (inactive),> 30 µM (inactive),> 30 µM (inactive)
c1cc(OCCN2CCCCC2)cc(-c2n[nH]c3ccc(-c4nc[nH]n4)cc23)c1 [CC-401],> 30 µM (inactive),> 30 µM (inactive),> 30 µM (inactive),> 30 µM (inactive)
O=C(NOC[C@H](O)CO)c1ccc(F)c(F)c1Nc1ccc(I)cc1F [MIRDAMETINIB],> 30 µM (inactive),> 30 µM (inactive),> 30 µM (inactive),> 30 µM (inactive)
C[C@@H]1COC(Nc2ccc3ncnc(Nc4ccc(OCc5nccs5)c(Cl)c4)c3c2)=N1 [VARLITINIB],> 30 µM (inactive),> 30 µM (inactive),> 30 µM (inactive),> 30 µM (inactive)
COc1cc2nccc(Oc3ccc(NC(=O)C4(C(=O)Nc5ccc(F)cc5)CC4)cc3)c2cc1OC [CABOZANTINIB],> 30 µM (inactive),> 30 µM (inactive),> 30 µM (inactive),> 30 µM (inactive)
CNC(=O)c1cccc(-c2ccc3c(N4CCOC[C@@H]4C)nc(N4CCOC[C@@H]4C)nc3n2)c1 [VISTUSERTIB],> 30 µM (inactive),> 30 µM (inactive),> 30 µM (inactive),> 30 µM (inactive)
S=C(NCc1ccc2c(c1)OCO2)N1CCN(c2ncnc3c2oc2ccccc23)CC1 [AMUVATINIB],> 30 µM (inactive),> 30 µM (inactive),> 30 µM (inactive),> 30 µM (inactive)
COc1ccc(-c2ccc3ncc4c(c3c2)n(-c2ccc(N3CCNCC3)c(C(F)(F)F)c2)c(=O)n4C)cn1 [BGT-226 FREE BASE],> 30 µM (inactive),> 30 µM (inactive),> 30 µM (inactive),> 30 µM (inactive)
C=CCN(/C=C1/C(=O)O[C@H](COC)[C@@]2(C)C1=C(O)C(=O)C1=C2[C@H](OC(C)=O)C[C@]2(C)C(=O)CC[C@@H]12)CC=C [SONOLISIB],> 30 µM (inactive),> 30 µM (inactive),> 30 µM (inactive),> 30 µM (inactive)
C=CC(=O)Nc1cc(Nc2nccc(-c3cn(C)c4ccccc34)n2)c(OC)cc1N(C)CCN(C)C [OSIMERTINIB],> 30 µM (inactive),> 30 µM (inactive),> 30 µM (inactive),> 30 µM (inactive)
Cc1c(Cn2c(C)nc3c(C(=O)O)cc(N4CCOCC4)cc32)cccc1C(F)(F)F [GSK-2636771],> 30 µM (inactive),> 30 µM (inactive),> 30 µM (inactive),> 30 µM (inactive)
O=C(O)c1ccc2c(c1)nc(Nc1cccc(Cl)c1)c1ccncc12 [SILMITASERTIB],> 30 µM (inactive),> 30 µM (inactive),> 30 µM (inactive),> 30 µM (inactive)
COc1cc2ncnc(Nc3ccc(F)c(Cl)c3)c2cc1NC(=O)/C=C/CN1CCCCC1 [DACOMITINIB ANHYDROUS],> 30 µM (inactive),> 30 µM (inactive),> 30 µM (inactive),> 30 µM (inactive)
COc1ccc2c(OCc3nnc4ccc(-c5ccccc5)nn34)ccnc2c1 [AMG-208],> 30 µM (inactive),> 30 µM (inactive),> 30 µM (inactive),> 30 µM (inactive)
O=C(NC[C@H](O)CO)c1ccncc1Nc1ccc(I)cc1F [PIMASERTIB],> 30 µM (inactive),> 30 µM (inactive),> 30 µM (inactive),> 30 µM (inactive)

# Continued, values first:
Kd [1],Kd [2],Kd (Septin-9),Kd (DNA topoisomerase 2-beta),SMILES
> 30 µM (inactive),> 30 µM (inactive),> 30 µM (inactive),> 30 µM (inactive),Cc1cc(C(=O)Nc2cc(Oc3ccc4nc(NC(=O)C5CC5)cn4n3)ccc2C)n(C)n1 [TAK-593]
> 30 µM (inactive),> 30 µM (inactive),> 30 µM (inactive),> 30 µM (inactive),Cn1c(=O)c(F)c(Nc2ccc(I)cc2F)c2c(=O)n(C[C@@H](O)CO)cnc21 [TAK-733]
> 30 µM (inactive),> 30 µM (inactive),> 30 µM (inactive),> 30 µM (inactive),COc1cccc2cc(-c3nc([C@H]4CC[C@H](C(=O)O)CC4)n4ncnc(N)c34)[nH]c12 [OSI-027]
> 30 µM (inactive),> 30 µM (inactive),> 30 µM (inactive),> 30 µM (inactive),CC(C)(O)CC(=O)NCCn1ccc2ncnc(Nc3ccc(Oc4cccc(C(F)(F)F)c4)c(Cl)c3)c21 [TAK-285]
> 30 µM (inactive),> 30 µM (inactive),> 30 µM (inactive),> 30 µM (inactive),COc1cc2ncnc3c2cc1OCCCCCN(C)Cc1ccc(Br)cc1N3 [JNJ-26483327]
> 30 µM (inactive),> 30 µM (inactive),> 30 µM (inactive),> 30 µM (inactive),O=C(Nc1ccc(OC(F)(F)F)cc1)c1sccc1NCc1ccnc2ccccc12 [OSI-930]
